Measurements reported in the supplement of paper PMC10307832.

Tests used:
Experiment in all cases: relative viability (nuclei count vs DMSO), 5 days (fraction); higher = more cells survive
Docetaxel = compound: CC(=O)O[C@@]12CO[C@@H]1C[C@H](O)[C@@]1(C)C(=O)[C@H](O)C3=C(C)[C@@H](OC(=O)[C@H](O)[C@@H](NC(=O)OC(C)(C)C)c4ccccc4)C[C@@](O)([C@@H](OC(=O)c4ccccc4)[C@H]21)C3(C)C [Docetaxel]
Outline: (§1)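 Vehicle-anchored 1536-well plates of lung cancer cell lines, held overnight at 37 °C, were pinned with five library-drug doses (not always all listed) spaced by √10. No medium change followed over the next 5 days, after which the cells were fixed, permeabilised and Hoechst-stained together and imaged at 4×. Nuclei were counted with MetaXpress, and viability is treated-well nuclei over vehicle-well nuclei, taken as a median across plates. Plates passed with control CV below 25% and at least one doubling.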

Cytarabine = compound: Nc1ccn([C@@H]2O[C@H](CO)[C@@H](O)[C@@H]2O)c(=O)n1 [Cytarabine]
Outline: as §1

CPI-613 = compound: O=C(O)CCCCC(CCSCc1ccccc1)SCc1ccccc1 [CPI-613]
Outline: as §1

JQ1 = compound: Cc1sc2c(c1C)C(c1ccc(Cl)cc1)=N[C@@H](CC(=O)OC(C)(C)C)c1nnc(C)n1-2 [JQ1]
Outline: as §1

Pimozide = compound: O=c1[nH]c2ccccc2n1C1CCN(CCCC(c2ccc(F)cc2)c2ccc(F)cc2)CC1 [Pimozide]
Outline: as §1

[1] = compound: Cc1cnc(-c2cnc(NCCNc3ccc(C#N)cn3)nc2-c2ccc(Cl)cc2Cl)[nH]1
Outline: as §1

Tivozanib = compound: COc1cc2nccc(Oc3ccc(NC(=O)Nc4cc(C)on4)c(Cl)c3)c2cc1OC [Tivozanib]
Outline: as §1

Row | Cell Line | relative viability (Docetaxel; 0.0002 µM) | relative viability (Docetaxel; 0.000632 µM) | relative viability (Docetaxel; 0.002 µM) | relative viability (Docetaxel; 0.006325 µM) | relative viability (Docetaxel; 0.02 µM) | relative viability (Cytarabine; 0.005 µM) | relative viability (Cytarabine; 0.01581 µM) | relative viability (Cytarabine; 0.05 µM) | relative viability (Cytarabine; 0.1581 µM) | relative viability (Cytarabine; 0.5 µM) | relative viability (CPI-613; 5 µM) | relative viability (CPI-613; 15.81 µM) | relative viability (CPI-613; 50 µM) | relative viability (CPI-613; 158.11 µM) | relative viability (CPI-613; 500 µM) | relative viability (JQ1; 0.04 µM) | relative viability (JQ1; 0.1265 µM) | relative viability (JQ1; 0.4 µM) | relative viability (JQ1; 1.265 µM) | relative viability (JQ1; 4 µM) | relative viability (Pimozide; 0.08 µM) | relative viability (Pimozide; 0.253 µM) | relative viability (Pimozide; 2.53 µM) | relative viability (Pimozide; 8 µM) | relative viability ([1]; 0.08 µM) | relative viability ([1]; 0.253 µM) | relative viability ([1]; 0.8 µM) | relative viability ([1]; 2.53 µM) | relative viability (Tivozanib; 0.005 µM) | relative viability (Tivozanib; 0.01581 µM) | relative viability (Tivozanib; 0.05 µM) | relative viability (Tivozanib; 0.1581 µM) | relative viability (Tivozanib; 0.5 µM) | relative viability (Pimozide; 0.8 µM)
1 | NCI-H2087 | 0.947 | 0.5 | 0.223 | 0.182 | 0.107 | 0.946 | 0.888 | 0.722 | 0.614 | 0.36 | 0.971 | 1.09 | 0.954 | 0.307 | 0.0055 | 0.996 | 0.661 | 0.963 | 0.581 | 0.451 | 1.11 | 1.05 | 1.05 | 0.773 | 1.12 | 0.723 | 1.05 | 0.886 | 0.988 | 0.972 | 0.956 | 1.28 | 0.995 | –
2 | NCI-H2126 | 1.02 | 0.886 | 0.624 | 0.369 | 0.227 | 0.887 | 0.9 | 0.716 | 0.714 | 0.618 | 0.98 | 0.991 | 1.05 | 0.563 | 0.592 | 1.01 | 0.928 | 0.858 | 0.697 | 0.648 | 0.978 | 0.948 | 0.966 | 0.986 | 1.03 | 0.927 | 0.952 | 1.04 | 0.968 | 0.961 | 1.04 | 0.713 | 0.98 | 1.02
3 | NCI-H2170 | 1.01 | 0.999 | 0.828 | 0.271 | 0.201 | 0.822 | 0.741 | 0.688 | 0.463 | 0.402 | 0.939 | 0.903 | 0.998 | 0.802 | 0.301 | 1 | 0.778 | 0.908 | 0.711 | 0.503 | 1.05 | 0.94 | 0.945 | 0.947 | 1.1 | 0.655 | 0.989 | 0.958 | 0.928 | 0.923 | 0.956 | – | 1.02 | 0.956
4 | NCI-H2228 | 0.749 | 0.341 | 0.2 | 0.199 | 0.144 | 0.5 | 0.432 | 0.428 | 0.163 | 0.141 | 0.915 | 0.931 | 0.893 | 0.744 | 0.0258 | 0.927 | 0.857 | 0.876 | 0.462 | 0.406 | 1.07 | 1.11 | 0.805 | 0.543 | 1.03 | 0.887 | 1.01 | 0.864 | 0.897 | 0.866 | 0.933 | 0.965 | 0.989 | 0.868
5 | NCI-H2342 | 1.04 | 0.818 | 0.692 | 0.619 | 0.484 | 0.909 | 0.878 | 0.793 | 0.744 | 0.608 | 0.929 | 1.01 | 1.07 | 0.97 | 1.07 | 1.17 | 0.775 | 0.993 | 0.943 | 0.756 | 1.01 | 0.876 | 0.863 | 0.995 | 1.13 | 0.794 | 0.952 | 0.903 | 0.88 | 0.948 | 0.886 | – | 0.987 | 0.912
6 | NCI-H2347 | 0.973 | 0.952 | 0.726 | 0.52 | 0.459 | 1.07 | 0.914 | 0.825 | 0.658 | 0.661 | 1.03 | 0.866 | 0.96 | 0.776 | 0.844 | 0.992 | 0.771 | 0.886 | 0.709 | 0.518 | 0.911 | 0.957 | 0.962 | 0.986 | 1.08 | 0.894 | 0.958 | 1.09 | 0.95 | 0.997 | 1.17 | 0.939 | 1 | 0.828
7 | NCI-H2405 | 0.982 | 0.879 | 0.633 | 0.453 | 0.339 | 0.927 | 0.712 | 0.57 | 0.512 | 0.384 | 0.996 | 0.909 | 0.939 | 0.931 | 0.78 | 1.03 | 0.598 | 0.921 | 0.711 | 0.499 | 0.964 | 0.937 | 0.992 | 0.96 | 1.01 | 0.938 | 0.948 | 0.736 | 0.933 | 1.02 | 1.04 | 0.89 | 0.772 | 1.03
8 | NCI-H3122 | 0.981 | 0.839 | 0.731 | 0.184 | 0.12 | 0.99 | 0.928 | 0.971 | 0.553 | 0.399 | 0.969 | 1.01 | 1.02 | 0.956 | 0.146 | 0.962 | 0.791 | 0.96 | 0.857 | 0.518 | 0.983 | 1.02 | 0.962 | 1.03 | 0.962 | – | 0.988 | 0.965 | 0.961 | 1.03 | 1.01 | 1.12 | 1.02 | 0.948
9 | PC-3 [JPC-3] | 0.98 | 1.01 | 0.585 | 0.344 | 0.188 | 0.945 | 0.971 | 0.773 | 0.618 | 0.631 | 1.01 | 0.952 | 1.01 | 0.789 | 0.358 | 0.999 | 0.997 | 0.762 | 0.675 | 0.606 | – | 0.984 | 1.01 | 0.894 | 1 | 0.909 | 1.04 | 1.03 | 1.03 | 1.05 | 1.06 | 1.05 | 0.912 | 0.945
10 | PC-14 | 0.941 | 0.742 | 0.209 | 0.081 | 0.0432 | 0.881 | 0.922 | 0.565 | 0.174 | 0.127 | 0.956 | 0.9 | 0.941 | 0.685 | 0.595 | 0.971 | 0.684 | 0.652 | 0.333 | 0.22 | – | 0.965 | 0.915 | 0.987 | 1.07 | 0.861 | 1.04 | 0.867 | 0.924 | 1.05 | 1.06 | 1.03 | 0.927 | 0.851
11 | RERF-LC-KJ | 0.94 | 0.79 | 0.335 | 0.218 | 0.173 | 0.869 | 0.907 | 0.77 | 0.567 | 0.435 | 0.978 | 0.883 | 1.02 | 0.891 | 0.865 | 0.985 | 1.01 | 0.967 | 0.624 | 0.423 | 0.959 | 0.887 | 0.869 | 0.792 | 1.1 | 0.906 | 0.89 | 1 | 0.951 | 0.939 | 1.06 | 0.935 | 0.969 | 0.867
12 | SK-LU-1 | 0.843 | 0.64 | 0.425 | 0.329 | 0.255 | 0.853 | 0.868 | 0.776 | 0.433 | 0.322 | 1.04 | 0.911 | 0.995 | 0.668 | 0.473 | 1 | 0.91 | 0.91 | 0.377 | 0.238 | 1.02 | 1.03 | 0.876 | 0.858 | 1.12 | 0.967 | 1.06 | 1.14 | 1 | 1.02 | 1.12 | 0.928 | 1.05 | 0.986
13 | SK-MES-1 | 1 | 0.872 | 0.418 | 0.267 | 0.172 | 0.875 | 0.712 | 0.355 | 0.258 | 0.221 | 0.967 | 0.904 | 0.98 | 0.531 | 0.477 | 0.937 | 0.717 | 0.603 | 0.311 | 0.25 | 0.942 | 0.998 | 1.01 | 0.985 | 1.09 | 0.947 | 1.02 | 1.1 | 0.997 | 0.993 | 1.02 | 1 | 0.959 | 0.979
14 | SW 900 | 0.69 | 0.422 | 0.292 | 0.232 | 0.174 | 0.725 | 0.674 | 0.564 | 0.26 | 0.204 | 0.837 | 0.642 | 1.02 | 0.601 | 0.0301 | 0.87 | 0.766 | 0.557 | 0.26 | 0.209 | 0.916 | 0.84 | 0.811 | 0.742 | 0.902 | 0.803 | 0.759 | 0.729 | 0.894 | 0.855 | 0.844 | 0.4 | 0.791 | 0.468
15 | SW 1573 | 0.872 | 0.485 | 0.252 | 0.205 | 0.152 | 0.969 | 0.87 | 0.725 | 0.38 | 0.157 | 0.917 | 0.851 | 0.958 | 0.482 | 0.314 | 0.869 | 0.791 | 0.637 | 0.365 | 0.345 | 0.923 | 1.02 | 0.82 | 0.637 | 1.1 | 0.999 | 0.997 | 0.6 | 0.969 | 0.914 | 1.01 | 0.903 | 0.829 | 0.945
16 | UMC-11 | 0.912 | 0.944 | 0.456 | 0.279 | 0.187 | 0.75 | 0.554 | 0.551 | 0.316 | 0.264 | 0.945 | 0.924 | 0.911 | 0.474 | 0.133 | 0.926 | 0.742 | 0.43 | 0.29 | 0.26 | 1.01 | 0.983 | 0.976 | 1.07 | 0.943 | 0.787 | 0.929 | 1.02 | 0.944 | 0.954 | 0.965 | – | 0.927 | 0.961
